{"source": "patent US11648258B2", "about": "“Method and compounds for inhibiting the MCM complex and their application in cancer treatment” (priority 2012, dated 2023)", "key": {"HeLa cells": {"tested_on": "HeLa cells", "test": "BrdU incorporation assay (DNA replication) in HeLa cells", "type": "cell-based, human", "description": "Hela cells grown on cover slips coated with poly-D-lysine were incubated with 50 μM BrdU (Sigma) for 1 hr at 37° C. after 24 hrs of 17beta-Deacetyltanghinin treatment. Cells were then fixed in with 4% of PFA in PBS at room temperature for 20 min, permeabilized with 0.1% Triton X-100 and 1% BSA in PBS for 20 min, and then incubated sequentially with anti-BrdU (Sigma Chemical Company; 1:500) and anti-mouse IgG-FITC conjugates (Sigma Chemical Company; 1:500), each for 1 hr at 37° C., with three washes in PBS after each antibody incubation. BrdU signal was observed under the fluorescence microscope (Nikon TE2000E).\nAs 17beta-Deacetyltanghinin disrupts the interactions between hMcm2 and hMcm6 and inhibits the association of MCM proteins with chromatin, 17beta-Deacetyltanghinin should block DNA replication. To confirm this, we treated HeLa cells with 17beta-Deacetyltanghinin for 24 hrs and then labeled them with BrdU for 1 hr. Incorporated BrdU in the cellular DNA was detected by an anti-BrdU antibody followed by FITC-anti-mouse secondary antibodies which was visualized under the fluorescence microscope (FIG. 6A). DAPI was used to stain the nuclei (FIG. 6A), and the percentage of BrdU positive cells was quantified (FIG. 6B). […]"}, "L-02 cells": {"tested_on": "L-02 cells", "test": "Flow cytometry (cell cycle) in normal L-02 cells", "type": "cell-based, human", "settings": "24 hrs", "description": "Both floating and attached cells were collected and washed once with PBS. Cells were fixed in 70% ethanol for 1 hr to overnight at −20° C., washed thoroughly with PBS, and then stained in 50 μg/ml RNase A, 0.1% Triton X-100, 0.1 mM EDTA (pH 7.4), and 50 μg/ml propidium iodide for 30 min at 4° C. Samples were analyzed with the FACSort instrument (Becton Dickinson).\nIn FIG. 8A, flow cytometry was performed to analyze the DNA contents in HepG2 and L-02 cells treated with 17beta-Deacetyltanghinin at various concentrations for 24 hrs. In FIG. 8B, Hela cells were treated with 17beta-Deacetyltanghinin for 24 hrs and labeled with Annexin V-Cy3 (Arm. Cy3) for 20 min. Mitoxantrone (MTX), a clinical anticancer drug that can induce apoptosis in cancer cells, was used as a positive control."}, "[1]": {"tested_on": "normal cells (L-02, NP460)", "test": "WST-1 anti-proliferation assay, normal cells (IC50)", "type": "cell-based", "settings": "Homo sapiens, 48 hrs treatment", "description": "For testing the anti-proliferation activity of the compounds in human cell lines and calculation of IC50, cancer cells including HepG2, HeLa and Hep3B (4×10^5 cells/well) and normal L-02 cells (5×10^5 cells/well) were respectively seeded in 96-well plates in 100 μl of culture medium and incubated for about 12 hrs at 37° C. The cells were treated with two-fold serial dilutions of the drugs for 48 hrs. Medium was removed and 100 μl of culture medium containing 1 μM WST-1 (water soluble tetrazolium-1) were added to each well. The cells were incubated for 2 hrs, and absorbance at 405 nm (reference at 630 nm) was then measured. To construct the standard curve of the relationship between cell number and absorbance at OD405, serial dilutions of cells with known cell numbers were seeded and incubated for six hrs before being measured by the WST-1 assay. The cell viability was expressed as the ratio of the number of live cells treated with a candidate compound versus that of the DMSO-treated cells. […]"}, "hMcm2 and hMcm6 [2]": {"biological_target": "T1, hMcm2 and hMcm6 (Homo sapiens, UniProt P49736+Q14566)", "T1 construct": "the endogenous hMcm2 and hMcm6 were detected by specific antibodies against these proteins; endogenous in cells; host or cells: HeLa", "T1 sequence (P49736 2-904)": "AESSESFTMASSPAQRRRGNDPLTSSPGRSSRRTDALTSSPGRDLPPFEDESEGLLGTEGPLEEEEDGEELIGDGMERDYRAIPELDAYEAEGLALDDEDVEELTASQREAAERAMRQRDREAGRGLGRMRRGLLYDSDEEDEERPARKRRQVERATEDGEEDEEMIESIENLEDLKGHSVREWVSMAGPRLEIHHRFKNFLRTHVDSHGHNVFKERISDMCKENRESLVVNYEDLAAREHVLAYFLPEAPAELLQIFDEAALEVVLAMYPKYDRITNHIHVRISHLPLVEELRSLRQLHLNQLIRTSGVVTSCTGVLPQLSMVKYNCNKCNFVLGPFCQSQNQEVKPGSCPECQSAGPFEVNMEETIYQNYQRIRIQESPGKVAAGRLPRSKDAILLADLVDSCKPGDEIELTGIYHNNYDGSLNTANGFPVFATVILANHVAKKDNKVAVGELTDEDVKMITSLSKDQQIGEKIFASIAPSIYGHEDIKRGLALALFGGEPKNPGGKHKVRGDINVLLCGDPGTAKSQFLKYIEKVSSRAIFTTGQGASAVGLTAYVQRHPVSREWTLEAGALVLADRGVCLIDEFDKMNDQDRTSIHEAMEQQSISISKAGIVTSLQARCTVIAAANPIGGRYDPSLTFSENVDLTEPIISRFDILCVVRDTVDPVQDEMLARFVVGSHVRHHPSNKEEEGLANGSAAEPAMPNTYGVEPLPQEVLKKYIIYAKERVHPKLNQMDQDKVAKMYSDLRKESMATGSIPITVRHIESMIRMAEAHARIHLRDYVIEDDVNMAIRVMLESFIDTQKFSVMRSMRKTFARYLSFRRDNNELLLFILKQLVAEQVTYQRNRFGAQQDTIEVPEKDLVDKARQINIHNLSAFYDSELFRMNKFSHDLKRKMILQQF", "T1 sequence (Q14566 whole entry)": "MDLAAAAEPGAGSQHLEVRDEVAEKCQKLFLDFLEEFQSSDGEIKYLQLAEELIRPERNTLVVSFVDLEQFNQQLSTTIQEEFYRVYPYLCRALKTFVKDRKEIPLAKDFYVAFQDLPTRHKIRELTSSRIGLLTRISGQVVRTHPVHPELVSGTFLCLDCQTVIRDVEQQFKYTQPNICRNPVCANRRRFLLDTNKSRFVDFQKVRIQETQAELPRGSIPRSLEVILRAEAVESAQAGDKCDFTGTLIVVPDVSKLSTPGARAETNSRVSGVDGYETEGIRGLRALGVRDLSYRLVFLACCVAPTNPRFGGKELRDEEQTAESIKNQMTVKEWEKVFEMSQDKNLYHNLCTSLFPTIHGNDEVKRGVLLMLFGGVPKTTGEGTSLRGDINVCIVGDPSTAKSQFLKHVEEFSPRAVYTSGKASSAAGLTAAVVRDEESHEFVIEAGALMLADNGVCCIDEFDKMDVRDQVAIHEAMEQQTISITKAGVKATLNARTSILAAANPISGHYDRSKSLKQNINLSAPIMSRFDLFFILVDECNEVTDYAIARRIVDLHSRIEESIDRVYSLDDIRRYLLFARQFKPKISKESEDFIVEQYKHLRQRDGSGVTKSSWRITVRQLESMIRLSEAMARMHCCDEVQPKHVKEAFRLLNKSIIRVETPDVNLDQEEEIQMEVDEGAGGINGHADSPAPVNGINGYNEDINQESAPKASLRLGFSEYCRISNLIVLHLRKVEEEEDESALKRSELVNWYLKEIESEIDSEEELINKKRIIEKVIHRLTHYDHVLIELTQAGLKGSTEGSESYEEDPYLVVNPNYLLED", "test": "Immunostaining / GFP fluorescence microscopy of MCM nuclear localization in HeLa cells", "type": "cell-based", "settings": "24 hrs", "description": "(§1) To study the effect of the anticancer compounds on the interaction between hMcm2 and hMcm6 in the cells, immunostaining was performed to detect the sub-cellular localization of the proteins. HeLa cells grown on cover slips (coated with poly-D-lysine) with or without drug treatment were fixed with 4% PFA in PBS at room temperature for 20 min. After permeabilization with 0.1% Triton X-100 and 1% BSA in PBS for 20 min, cells were blocked with 1% BSA and then incubated with rabbit anti-hMcm6 (Santa Cruz; 1:500) and mouse anti-hMcm2 (Becton Dickinson; 1:500) primary antibodies at room temperature for 1 hr. Cells were then incubated with Alexa Fluor 488-conjugated donkey […] antibody and Alexa Fluor 594-conjugated donkey anti-mouse antibody (Invitrogen; 1:500) at room temperature for 1 hr. Three washes with PBS were performed after each round of antibody incubation. Cells were then incubated with Hochest 33852 (Sigma Chemical Company; 1 μg/ml) at room temperature for 15 min for nuclear staining and washed with PBS three times again. At last, cells were mounted and observed under the fluorescence microscope (Nikon TE2000E).\n(§2) Because pair-wise interactions among the MCM subunits are required for the MCM heterohexameric ring structure, which is essential for their import into the nucleus, disruption of the interaction between hMcm2 and hMcm6 should destroy the hexamer and result in failure of nuclear localization of MCM proteins. To test this, we employed both indirect fluorescence microscopy (immunostaining) using antibodies against the endogenous MCM proteins and direct fluorescence microscopy after transfection with plasmids to express hMcm2-GFP and hMcm6-GFP in the cells.\n(§3) In immunostaining, HeLa cells were treated by 17beta-Deacetyltanghinin for 24 hrs, and the endogenous hMcm2 and hMcm6 were detected by specific antibodies against these proteins. […] In direct fluorescence microscopy, HeLa cells expressing hMcm2-GFP and hMcm6-GFP were treated with 17beta-Deacetyltanghinin for 36 hrs starting at 4 hrs post-transfection with the plasmids expressing hMcm2-GFP and hMcm6-GFP."}, "hMcm2 and hMcm6 [3]": {"tested_on": "hMcm2 and hMcm6", "test": "Immunostaining / GFP fluorescence microscopy of MCM nuclear localization in HeLa cells", "type": "cell-based, human", "settings": "36 hrs treatment starting 4 hrs post-transfection", "description": "as §1, §2, §3"}}}
{"smiles": "COC1C(O)[C@H](O[C@H]2CC[C@]3(C)C4CC[C@]5(C)[C@@H](C6=CC(=O)OC6)CC[C@]5(O)[C@@]45O[C@H]5C[C@@H]3C2)OC(C)[C@@H]1O", "note": "(stereo partly drawn) [17beta-Deacetyltanghinin, 3β-O-(3-O-methyl-6-deoxy-α-L-glucopyranosyl)-7β,8β-epoxy-14β-hydroxy-card-20(22)-enolide]", "values": [{"measurement": "BrdU positive cells", "setting": "HeLa cells; HeLa cells arrested with Mimosine, 12 hrs pre-treatment, released in presence of compound, controls ~100%", "value": "~40", "unit": "%"}, {"measurement": "BrdU signal (DNA replication)", "setting": "HeLa cells; asynchronous HeLa cells, 24 hrs, above 0.2 ∝g/ml", "value": "almost no BrdU signal"}, {"measurement": "cell cycle effect in normal cells", "setting": "L-02 cells", "value": "mostly arrested in G1 phase"}, {"measurement": "IC50", "setting": "[1]", "value": "> 4", "unit": "µg/mL"}, {"measurement": "nuclear localization of endogenous hMcm2 and hMcm6 (immunostaining)", "setting": "hMcm2 and hMcm6 [2]", "value": "impaired"}, {"measurement": "localization of expressed hMcm2-GFP and hMcm6-GFP (direct fluorescence)", "setting": "hMcm2 and hMcm6 [3]", "value": "some of the expressed hMcm2-GFP and hMcm6-GFP located in the cytoplasm"}]}
